Results from the NIST ThermoML archive (doi:10.1016/j.jct.2004.10.011).

Assay: xn = mol fraction of the nth substance listed
Settings: Liquid, Vibrating tube method

CCC(=O)c1ccccc1 [ethyl phenyl ketone] + Cc1ccccc1
mass density [kg/m3]
Settings | x2 = 0 | x2 = 0.1048 | x2 = 0.2025 | x2 = 0.3006 | x2 = 0.3991 | x2 = 0.4998 | x2 = 0.6004 | x2 = 0.7036 | x2 = 0.8028 | x2 = 0.902
298.15 K, 100 kPa | 1005.3 | 993.5 | 982.2 | 970.2 | 957.5 | 943.76 | 929.02 | 913.4 | 897.3 | 880.1
298.15 K, 2130 kPa | 1006.4 | 994.6 | 983.3 | 971.3 | 958.6 | 944.95 | 930.27 | 914.7 | 898.6 | 881.5
298.15 K, 4150 kPa | 1007.5 | 995.8 | 984.5 | 972.6 | 959.9 | 946.25 | 931.61 | 916 | 900 | 882.9
298.15 K, 6180 kPa | 1008.7 | 996.9 | 985.7 | 973.8 | 961.2 | 947.55 | 932.93 | 917.4 | 901.4 | 884.4
298.15 K, 8210 kPa | 1009.8 | 998.1 | 986.9 | 975 | 962.4 | 948.81 | 934.23 | 918.7 | 902.8 | 885.8
298.15 K, 10230 kPa | 1010.9 | 999.2 | 988 | 976.1 | 963.6 | 950.05 | 935.53 | 920 | 904.2 | 887.2
298.15 K, 11250 kPa | 1011.5 | 999.8 | 988.6 | 976.7 | 964.2 | 950.67 | 936.16 | 920.7 | 904.8 | 887.9
298.15 K, 12260 kPa | 1012.1 | 1000.3 | 989.2 | 977.3 | 964.8 | 951.26 | 936.78 | 921.3 | 905.5 | 888.6
298.15 K, 14290 kPa | 1013.2 | 1001.5 | 990.3 | 978.5 | 966 | 952.5 | 938.05 | 922.6 | 906.8 | 890
298.15 K, 16310 kPa | 1014.3 | 1002.6 | 991.4 | 979.6 | 967.1 | 953.69 | 939.26 | 923.8 | 908.1 | 891.3
298.15 K, 18340 kPa | 1015.3 | 1003.7 | 992.5 | 980.7 | 968.3 | 954.88 | 940.49 | 925.1 | 909.4 | 892.6
298.15 K, 20370 kPa | 1016.4 | 1004.8 | 993.6 | 981.8 | 969.4 | 956.04 | 941.68 | 926.3 | 910.7 | 893.9
298.15 K, 22390 kPa | 1017.5 | 1005.8 | 994.7 | 983 | 970.5 | 957.19 | 942.87 | 927.5 | 911.9 | 895.2
298.15 K, 24420 kPa | 1018.5 | 1006.9 | 995.8 | 984 | 971.7 | 958.35 | 944.05 | 928.7 | 913.1 | 896.5
298.15 K, 26450 kPa | 1019.5 | 1007.9 | 996.8 | 985.1 | 972.7 | 959.45 | 945.21 | 929.9 | 914.3 | 897.8
298.15 K, 28470 kPa | 1020.5 | 1009 | 997.9 | 986.2 | 973.8 | 960.58 | 946.36 | 931.1 | 915.5 | 899
298.15 K, 29490 kPa | 1021 | 1009.5 | 998.4 | 986.7 | 974.3 | 961.14 | 946.92 | 931.7 | 916.1 | 899.6
298.15 K, 30500 kPa | 1021.6 | 1010 | 998.9 | 987.2 | 974.9 | 961.68 | 947.48 | 932.2 | 916.7 | 900.2
298.15 K, 32530 kPa | 1022.5 | 1011 | 999.9 | 988.3 | 976 | 962.77 | 948.6 | 933.4 | 917.9 | 901.4
298.15 K, 34550 kPa | 1023.5 | 1012 | 1000.9 | 989.3 | 977 | 963.83 | 949.68 | 934.5 | 919 | 902.6
298.15 K, 36580 kPa | 1024.5 | 1013 | 1001.9 | 990.3 | 978 | 964.89 | 950.78 | 935.6 | 920.2 | 903.8
298.15 K, 38600 kPa | 1025.5 | 1013.9 | 1002.9 | 991.3 | 979 | 965.93 | 951.82 | 936.7 | 921.2 | 904.9
298.15 K, 39620 kPa | 1025.9 | 1014.4 | 1003.4 | 991.8 | 979.6 | 966.46 | 952.38 | 937.2 | 921.8 | 905.2
308.15 K, 100 kPa | 996.8 | 984.8 | 973.6 | 961.5 | 948.7 | 934.98 | 920.13 | 904.3 | 888.2 | 871
308.15 K, 2130 kPa | 998 | 986 | 974.8 | 962.8 | 950 | 936.3 | 921.52 | 905.8 | 889.7 | 872.5
308.15 K, 4150 kPa | 999.2 | 987.3 | 976.1 | 964.1 | 951.3 | 937.68 | 922.91 | 907.2 | 891.1 | 874.1
308.15 K, 6180 kPa | 1000.4 | 988.5 | 977.3 | 965.3 | 952.6 | 939.04 | 924.29 | 908.7 | 892.6 | 875.6
308.15 K, 8210 kPa | 1001.6 | 989.7 | 978.5 | 966.6 | 953.9 | 940.34 | 925.65 | 910.1 | 894 | 877.1
308.15 K, 10230 kPa | 1002.8 | 990.9 | 979.8 | 967.8 | 955.2 | 941.64 | 927 | 911.4 | 895.5 | 878.6
308.15 K, 11250 kPa | 1003.4 | 991.5 | 980.4 | 968.4 | 955.7 | 942.3 | 927.66 | 912.1 | 896.2 | 879.3
308.15 K, 12260 kPa | 1003.9 | 992.1 | 981 | 969 | 956.4 | 942.94 | 928.33 | 912.8 | 896.9 | 880
308.15 K, 14290 kPa | 1005.1 | 993.3 | 982.2 | 970.3 | 957.6 | 944.22 | 929.64 | 914.1 | 898.3 | 881.5
308.15 K, 16310 kPa | 1006.2 | 994.4 | 983.3 | 971.4 | 958.9 | 945.46 | 930.91 | 915.4 | 899.6 | 882.9
308.15 K, 18340 kPa | 1007.3 | 995.5 | 984.5 | 972.6 | 960 | 946.72 | 932.19 | 916.8 | 901 | 884.3
308.15 K, 20370 kPa | 1008.4 | 996.7 | 985.6 | 973.8 | 961.2 | 947.92 | 933.45 | 918 | 902.3 | 885.6
308.15 K, 22390 kPa | 1009.5 | 997.8 | 986.7 | 974.9 | 962.4 | 949.14 | 934.71 | 919.3 | 903.6 | 887
308.15 K, 24420 kPa | 1010.6 | 998.9 | 987.8 | 976 | 963.6 | 950.33 | 935.93 | 920.6 | 904.9 | 888.3
308.15 K, 26450 kPa | 1011.7 | 1000 | 988.9 | 977.2 | 964.7 | 951.5 | 937.14 | 921.8 | 906.2 | 889.7
308.15 K, 28470 kPa | 1012.8 | 1001 | 990 | 978.3 | 965.9 | 952.65 | 938.32 | 923 | 907.4 | 891
308.15 K, 29490 kPa | 1013.2 | 1001.6 | 990.6 | 978.8 | 966.4 | 953.24 | 938.92 | 923.6 | 908 | 891.6
308.15 K, 30500 kPa | 1013.8 | 1002.1 | 991.1 | 979.4 | 967 | 953.82 | 939.51 | 924.2 | 908.7 | 892.2
308.15 K, 32530 kPa | 1014.8 | 1003.2 | 992.2 | 980.5 | 968.1 | 954.96 | 940.68 | 925.4 | 909.9 | 893.5
308.15 K, 34550 kPa | 1015.8 | 1004.2 | 993.2 | 981.5 | 969.2 | 956.07 | 941.83 | 926.6 | 911.1 | 894.7
308.15 K, 36580 kPa | 1016.8 | 1005.2 | 994.3 | 982.6 | 970.2 | 957.16 | 942.97 | 927.7 | 912.3 | 896
308.15 K, 38600 kPa | 1017.9 | 1006.2 | 995.3 | 983.6 | 971.3 | 958.24 | 944.07 | 928.9 | 913.4 | 897.2
308.15 K, 39620 kPa | 1018.3 | 1006.7 | 995.8 | 984.1 | 971.9 | 958.83 | 944.64 | 929.5 | 914 | 897.8
